Assay results as given in ChEMBL document CHEMBL3885881, “DrugMatrix”.

Organism: Rattus norvegicus
Experiment: DrugMatrix - Regimen: Daily Repeat
Assay type: toxicity, organism-based, Sprague-Dawley
Parameters: regimen Daily Repeat, gender Male, age 6-8 weeks
Conditions: in vivo, po, route oral GAVAGE, […]; for ABSOLUTE BASOPHIL / BASOPHIL / ABSOLUTE EOSINOPHIL / ABSOLUTE LYMPHOCYTE / ABSOLUTE MONOCYTE / ABSOLUTE SEGMENTED NEUTROPHIL / EOSINOPHIL / ERYTHROCYTE COUNT / HEMATOCRIT / HEMOGLOBIN / LEUKOCYTE COUNT / LYMPHOCYTE / MEAN CORPUSCULAR HEMOGLOBIN / MEAN CORPUSCULAR HEMOGLOBIN CONCENTRATION / MEAN CORPUSCULAR VOLUME / MONOCYTE / NEUTROPHIL / NUCLEATED RED BLOOD CELLS / PLATELET COUNT: tissue Blood; for ALANINE AMINOTRANSFERASE / ALBUMIN / ALKALINE PHOSPHATASE / ASPARTATE AMINOTRANSFERASE / BLOOD UREA NITROGEN / CARBON DIOXIDE / CHLORIDE / CHOLESTEROL / CREATINE PHOSPHOKINASE / CREATININE / GLUCOSE / LACTATE DEHYDROGENASE / LIPASE / PHOSPHORUS / POTASSIUM / SODIUM / TOTAL BILIRUBIN / TOTAL PROTEIN / URIC ACID: tissue Plasma
[1] = 0 mg/kg, 72 h, dose level Control, time 3 day
[2] = 0 mg/kg, 120 h, dose level Control, time 5 day
[3] = 4 mg/kg, 72 h, dose level Low, time 3 day
[4] = 4 mg/kg, 120 h, dose level Low, time 5 day
[5] = 16 mg/kg, 72 h, dose level High, time 3 day
[6] = 16 mg/kg, 120 h, dose level High, time 5 day

## O=NN(CCCl)C(=O)NCCCl [CARMUSTINE]
[1]
  ABSOLUTE BASOPHIL: 0 CELLS/uL
  BASOPHIL: 0%
[2]
  ABSOLUTE BASOPHIL: 0 CELLS/uL
  ABSOLUTE EOSINOPHIL: 0 CELLS/uL
  ABSOLUTE LYMPHOCYTE: 10431 CELLS/uL
  ABSOLUTE MONOCYTE: 90.5 CELLS/uL
  ABSOLUTE SEGMENTED NEUTROPHIL: 1111.83 CELLS/uL
  BASOPHIL: 0%
  EOSINOPHIL: 0%
  ERYTHROCYTE COUNT: 5.51 x10E6/uL
  HEMATOCRIT: 34.67%
  HEMOGLOBIN: 13.5 G/DL
  LEUKOCYTE COUNT: 11.63 x10E3/uL
  LYMPHOCYTE: 89.67%
  MEAN CORPUSCULAR HEMOGLOBIN: 24.5 pg
  MEAN CORPUSCULAR HEMOGLOBIN CONCENTRATION: 38.95 G/DL
  MEAN CORPUSCULAR VOLUME: 62.87 fL
  MONOCYTE: 0.67%
  NEUTROPHIL: 9.67%
  NUCLEATED RED BLOOD CELLS: 0 /100WBC
  PLATELET COUNT: 1052.67 x10E3/uL
  ALANINE AMINOTRANSFERASE: 54.67 u/L
  ALBUMIN: 4.15 G/DL
  ALKALINE PHOSPHATASE: 359.83 u/L
  ASPARTATE AMINOTRANSFERASE: 83 u/L
  BLOOD UREA NITROGEN: 13.5 mg/dL
  CARBON DIOXIDE: 27.17 mmol/L
  CHLORIDE: 98.5 MEQ/L
  CHOLESTEROL: 66.83 mg/dL
  CREATINE PHOSPHOKINASE: 256.17 u/L
  CREATININE: 0.19 mg/dL
  GLUCOSE: 171.33 mg/dL
  LACTATE DEHYDROGENASE: 91.5 u/L
  LIPASE: 10.5 u/L
  PHOSPHORUS: 8.72 mg/dL
  POTASSIUM: 5.34 MEQ/L
  SODIUM: 142.53 MEQ/L
  TOTAL BILIRUBIN: 0.2 mg/dL
  TOTAL PROTEIN: 6.05 G/DL
  URIC ACID: 0.6 mg/dL
[3]
  ABSOLUTE BASOPHIL: 0 CELLS/uL
  ABSOLUTE EOSINOPHIL: 0 CELLS/uL
  ABSOLUTE LYMPHOCYTE: 4876.33 CELLS/uL
  ABSOLUTE MONOCYTE: 48 CELLS/uL
  ABSOLUTE SEGMENTED NEUTROPHIL: 442.33 CELLS/uL
  BASOPHIL: 0%
  EOSINOPHIL: 0%
  ERYTHROCYTE COUNT: 5.3 x10E6/uL
  HEMATOCRIT: 33.47%
  HEMOGLOBIN: 13.1 G/DL
  LEUKOCYTE COUNT: 5.37 x10E3/uL
  LYMPHOCYTE: 90.67%
  MEAN CORPUSCULAR HEMOGLOBIN: 24.7 pg
  MEAN CORPUSCULAR HEMOGLOBIN CONCENTRATION: 39.13 G/DL
  MEAN CORPUSCULAR VOLUME: 63.13 fL
  MONOCYTE: 1%
  NEUTROPHIL: 8.33%
  NUCLEATED RED BLOOD CELLS: 0 /100WBC
  PLATELET COUNT: 1176.67 x10E3/uL
  ALANINE AMINOTRANSFERASE: 69.33 u/L
  ALBUMIN: 4.2 G/DL
  ALKALINE PHOSPHATASE: 310 u/L
  ASPARTATE AMINOTRANSFERASE: 124.67 u/L
  BLOOD UREA NITROGEN: 8.33 mg/dL
  CARBON DIOXIDE: 31.67 mmol/L
  CHLORIDE: 102 MEQ/L
  CHOLESTEROL: 70 mg/dL
  CREATINE PHOSPHOKINASE: 196 u/L
  CREATININE: 0.11 mg/dL
  GLUCOSE: 149.33 mg/dL
  LACTATE DEHYDROGENASE: 75.67 u/L
  LIPASE: 45 u/L
  PHOSPHORUS: 9.8 mg/dL
  POTASSIUM: 5.86 MEQ/L
  SODIUM: 147.15 MEQ/L
  TOTAL BILIRUBIN: 0.2 mg/dL
  TOTAL PROTEIN: 5.6 G/DL
  URIC ACID: 0.47 mg/dL
[4]
  ABSOLUTE BASOPHIL: 0 CELLS/uL
  ABSOLUTE EOSINOPHIL: 0 CELLS/uL
  ABSOLUTE LYMPHOCYTE: 3763.67 CELLS/uL
  ABSOLUTE MONOCYTE: 27 CELLS/uL
  ABSOLUTE SEGMENTED NEUTROPHIL: 142.67 CELLS/uL
  BASOPHIL: 0%
  EOSINOPHIL: 0%
  ERYTHROCYTE COUNT: 5.76 x10E6/uL
  HEMATOCRIT: 35.3%
  HEMOGLOBIN: 13.53 G/DL
  LEUKOCYTE COUNT: 3.93 x10E3/uL
  LYMPHOCYTE: 95.67%
  MEAN CORPUSCULAR HEMOGLOBIN: 23.5 pg
  MEAN CORPUSCULAR HEMOGLOBIN CONCENTRATION: 38.33 G/DL
  MEAN CORPUSCULAR VOLUME: 61.27 fL
  MONOCYTE: 0.67%
  NEUTROPHIL: 3.67%
  NUCLEATED RED BLOOD CELLS: 0 /100WBC
  PLATELET COUNT: 1079.33 x10E3/uL
  ALANINE AMINOTRANSFERASE: 65 u/L
  ALBUMIN: 4.4 G/DL
  ALKALINE PHOSPHATASE: 287.67 u/L
  ASPARTATE AMINOTRANSFERASE: 91.67 u/L
  BLOOD UREA NITROGEN: 10 mg/dL
  CARBON DIOXIDE: 27.67 mmol/L
  CHLORIDE: 101.33 MEQ/L
  CHOLESTEROL: 66.67 mg/dL
  CREATINE PHOSPHOKINASE: 256.67 u/L
  CREATININE: 0.22 mg/dL
  GLUCOSE: 159.33 mg/dL
  LACTATE DEHYDROGENASE: 67.33 u/L
  LIPASE: 10.67 u/L
  PHOSPHORUS: 8.57 mg/dL
  POTASSIUM: 5.14 MEQ/L
  SODIUM: 148.03 MEQ/L
  TOTAL BILIRUBIN: 0.13 mg/dL
  TOTAL PROTEIN: 6.3 G/DL
  URIC ACID: 0.57 mg/dL
[5]
  ABSOLUTE BASOPHIL: 0 CELLS/uL
  ABSOLUTE EOSINOPHIL: 0 CELLS/uL
  BASOPHIL: 0%
  EOSINOPHIL: 0%
  TOTAL PROTEIN: 11.13 G/DL
[6]
  ABSOLUTE BASOPHIL: 0 CELLS/uL
  ABSOLUTE EOSINOPHIL: 9 CELLS/uL
  ABSOLUTE LYMPHOCYTE: 2345.67 CELLS/uL
  ABSOLUTE MONOCYTE: 24.67 CELLS/uL
  ABSOLUTE SEGMENTED NEUTROPHIL: 87.33 CELLS/uL
  BASOPHIL: 0%
  EOSINOPHIL: 0.33%
  ERYTHROCYTE COUNT: 6.17 x10E6/uL
  HEMATOCRIT: 38.6%
  HEMOGLOBIN: 14.23 G/DL
  LEUKOCYTE COUNT: 2.47 x10E3/uL
  LYMPHOCYTE: 95%
  MEAN CORPUSCULAR HEMOGLOBIN: 23.1 pg
  MEAN CORPUSCULAR HEMOGLOBIN CONCENTRATION: 36.93 G/DL
  MEAN CORPUSCULAR VOLUME: 62.57 fL
  MONOCYTE: 1%
  NEUTROPHIL: 3.67%
  NUCLEATED RED BLOOD CELLS: 0 /100WBC
  PLATELET COUNT: 1131 x10E3/uL
  ALANINE AMINOTRANSFERASE: 102 u/L
  ALBUMIN: 3.93 G/DL
  ALKALINE PHOSPHATASE: 370.33 u/L
  ASPARTATE AMINOTRANSFERASE: 322 u/L
  BLOOD UREA NITROGEN: 8.33 mg/dL
  CARBON DIOXIDE: 27.67 mmol/L
  CHLORIDE: 98 MEQ/L
  CHOLESTEROL: 235 mg/dL
  CREATINE PHOSPHOKINASE: 236.67 u/L
  CREATININE: 0.21 mg/dL
  GLUCOSE: 146 mg/dL
  LACTATE DEHYDROGENASE: 165.33 u/L
  LIPASE: 12 u/L
  PHOSPHORUS: 9.6 mg/dL
  POTASSIUM: 5.3 MEQ/L
  SODIUM: 146.6 MEQ/L
  TOTAL BILIRUBIN: 1.73 mg/dL
  TOTAL PROTEIN: 6.4 G/DL
  URIC ACID: 0.6 mg/dL
